Here are results for 20 molecules from patent publication US8063071B2 (GlaxoSmithKline, LLC, priority 2007, dated 2011).

Counter-ions that a name gives are not always drawn. Some results are limits rather than exact numbers.

In assay [1] the target is T1, Recombinant human IKKβ (residues 1-737) (Homo sapiens, UniProt O14920).
T1 construct: Recombinant human IKKβ (residues 1-737); GST (C); made in house
T1 sequence (O14920 1-737): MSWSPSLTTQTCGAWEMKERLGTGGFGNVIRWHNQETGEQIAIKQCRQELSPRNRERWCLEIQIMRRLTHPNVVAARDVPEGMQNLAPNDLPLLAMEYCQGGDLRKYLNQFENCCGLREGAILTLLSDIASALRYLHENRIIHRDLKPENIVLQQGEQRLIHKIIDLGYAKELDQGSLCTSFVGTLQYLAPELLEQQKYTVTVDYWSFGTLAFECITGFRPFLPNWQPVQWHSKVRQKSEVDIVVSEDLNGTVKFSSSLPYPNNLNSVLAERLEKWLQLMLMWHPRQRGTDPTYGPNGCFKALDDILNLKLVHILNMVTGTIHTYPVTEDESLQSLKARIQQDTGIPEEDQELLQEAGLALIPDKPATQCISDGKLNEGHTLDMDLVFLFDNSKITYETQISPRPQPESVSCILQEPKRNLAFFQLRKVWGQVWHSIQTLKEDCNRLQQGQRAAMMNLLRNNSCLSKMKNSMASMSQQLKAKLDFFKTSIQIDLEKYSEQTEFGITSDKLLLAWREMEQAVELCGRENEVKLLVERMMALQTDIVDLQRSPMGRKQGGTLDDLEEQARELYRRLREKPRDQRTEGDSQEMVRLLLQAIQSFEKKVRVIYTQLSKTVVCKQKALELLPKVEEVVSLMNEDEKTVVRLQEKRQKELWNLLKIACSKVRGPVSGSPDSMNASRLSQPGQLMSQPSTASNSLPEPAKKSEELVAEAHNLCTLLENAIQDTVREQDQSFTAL
Briefly: IKK2 assay (TR-FRET). Type of assay: biochemical. As to conditions: ATP 1 μM final, read-out: pIC50 against IKK2 (converted). The method, boiled down: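 TR-FRET readout (665 nm over 620 nm Eu reference) of GST-IB Ser32/36 phosphorylation after 60 min detection. Reaction: 1 μM ATP, 25 nM substrate, 0.5-5 nM GST-fused IKKβ 1-737 from baculovirus, pH 7.4 HEPES buffer, 1.7% DMSO, 15 min room temperature, EDTA-terminated.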

For assay [2], the system named is human monocyte stimulated cytokine production (TNF-α). Briefly: Monocyte assay (LPS-stimulated TNF-α production). The assay is classed as cell-based. The following applies: for inhibition at 0.3 µM: read-out: inhibition at 300 nM in the monocyte assay; for IC50: 24 h, 200 ng/mL LPS, TNF-α by ELISA. The method, boiled down: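 TNF-α release was measured by ELISA after 24 hrs at 37 C. Cells were stimulated with 200 ng/mL E. coli LPS, with compound added 30 minutes beforehand (0.1% DMSO vehicle). Cells were Ficoll/MACS-isolated CD14+ human monocytes adhered at 1×10^6 cells/mL, and viability was checked by trypan blue.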

As to `CCS(=O)(=O)N1CCC(c2c[nH]c3c(C(N)=O)cc(-c4csc(CN(C)Cc5ccccc5)c4)cc23)CC1` [Example 74, 3-[1-(ethylsulfonyl)-4-piperidinyl]-5-(5-{[methyl(phenylmethyl)amino]methyl}-3-thienyl)-1H-indole-7-carboxamide trifluoroacetate], in assay [1], the IC50 was at most 10 µM. Moreover, the inhibition at 0.3 µM in assay [2] fell in the range of 0 to 60%.

Turning to `CCS(=O)(=O)N1CCC(c2c[nH]c3c(C(N)=O)cc(-c4csc(CN(C)CCO)c4)cc23)CC1` [Example 75, 3-[1-(ethylsulfonyl)-4-piperidinyl]-5-(5-{[(2-hydroxyethyl)(methyl)amino]methyl}-3-thienyl)-1H-indole-7-carboxamide trifluoroacetate], the IC50 is at most 10 µM in assay [1] and at most 1.5 µM in assay [2].

Consider `CCS(=O)(=O)N1CCC(c2c[nH]c3c(C(N)=O)cc(-c4csc(CN(C)CCc5ccccn5)c4)cc23)CC1` [Example 76, 3-[1-(ethylsulfonyl)-4-piperidinyl]-5-[5-({methyl[2-(2-pyridinyl)ethyl]amino}methyl)-3-thienyl]-1H-indole-7-carboxamide trifluoroacetate], for which the IC50 in assay [1] is at most 10 µM; in assay [2], at most 1.5 µM.

`CCS(=O)(=O)N1CCC(c2c[nH]c3c(C(N)=O)cc(-c4csc(CN(C)Cc5ccco5)c4)cc23)CC1` [Example 77, 3-[1-(ethylsulfonyl)-4-piperidinyl]-5-(5-{[(2-furanylmethyl)(methyl)amino]methyl}-3-thienyl)-1H-indole-7-carboxamide trifluoroacetate]: the IC50 in assay [1] was at most 10 µM; in assay [2] it was at most 1.5 µM.

For `CCS(=O)(=O)N1CCC(c2c[nH]c3c(C(N)=O)cc(-c4csc(CN(C)Cc5ccncc5)c4)cc23)CC1` [Example 78, 3-[1-(ethylsulfonyl)-4-piperidinyl]-5-(5-{[methyl(4-pyridinylmethyl)amino]methyl}-3-thienyl)-1H-indole-7-carboxamide trifluoroacetate], the results for the IC50 in assay [1] and in assay [2] were at most 10 µM and at most 1.5 µM, respectively.

Take `CCS(=O)(=O)N1CCC(c2c[nH]c3c(C(N)=O)cc(-c4csc(CN(C)CC5CCN(C(C)C)C5)c4)cc23)CC1` (stereo not shown) [Example 79, 3-[1-(ethylsulfonyl)-4-piperidinyl]-5-{5-[(methyl{[1-(1-methylethyl)-3-pyrrolidinyl]methyl}amino)methyl]-3-thienyl}-1H-indole-7-carboxamide trifluoroacetate]: in assay [1], the IC50 was at most 10 µM. Besides, the inhibition at 0.3 µM in assay [2] was in the range of 0 to 60%.

For the molecule `CCS(=O)(=O)N1CCC(c2c[nH]c3c(C(N)=O)cc(-c4csc(CN(C)Cc5cccs5)c4)cc23)CC1` [Example 80, 3-[1-(ethylsulfonyl)-4-piperidinyl]-5-(5-{[methyl(2-thienylmethyl)amino]methyl}-3-thienyl)-1H-indole-7-carboxamide trifluoroacetate], the IC50 in assay [1] was at most 10 µM. The inhibition at 0.3 µM in assay [2] lay within 0 to 60%.

As for `CCS(=O)(=O)N1CCC(c2c[nH]c3c(C(N)=O)cc(-c4csc(CN(C)C(C)c5cccs5)c4)cc23)CC1` (stereo not shown) [Example 81, 3-[1-(ethylsulfonyl)-4-piperidinyl]-5-[5-({methyl[1-(2-thienyl)ethyl]amino}methyl)-3-thienyl]-1H-indole-7-carboxamide trifluoroacetate], the IC50 in assay [1] was at most 10 µM. The inhibition at 0.3 µM in assay [2] is 0 to 60%.

As for `CCS(=O)(=O)N1CCC(c2c[nH]c3c(C(N)=O)cc(-c4csc(CN(C)Cc5ccsc5)c4)cc23)CC1` [Example 82, 3-[1-(ethylsulfonyl)-4-piperidinyl]-5-(5-{[methyl(3-thienylmethyl)amino]methyl}-1′-3-thienyl)-1H-indole-7-carboxamide trifluoroacetate], the results for the IC50 in assay [1] and in assay [2] were at most 10 µM and at most 1.5 µM, respectively.

Consider `CCS(=O)(=O)N1CCC(c2c[nH]c3c(C(N)=O)cc(-c4csc(CN(C)CC5CCOCC5)c4)cc23)CC1` [Example 83, 3-[1-(ethylsulfonyl)-4-piperidinyl]-5-(5-{[methyl(tetrahydro-2H-pyran-4-ylmethyl)amino]methyl}-3-thienyl)-1H-indole-7-carboxamide trifluoroacetate], for which the IC50 in assay [1] was at most 10 µM; in assay [2], at most 1.5 µM.

For `CCS(=O)(=O)N1CCC(c2c[nH]c3c(C(N)=O)cc(-c4csc(CN(C)Cc5cccnc5)c4)cc23)CC1` [Example 84, 3-[1-(ethylsulfonyl)-4-piperidinyl]-5-(5-{[methyl(3-pyridinylmethyl)amino]methyl}-3-thienyl)-1H-indole-7-carboxamide trifluoroacetate], the IC50 in assay [1] is at most 10 µM. For the same molecule, the inhibition at 0.3 µM in assay [2] was 0 to 60%.

`CCS(=O)(=O)N1CCC(c2c[nH]c3c(C(N)=O)cc(-c4csc(CN(C)Cc5ccncn5)c4)cc23)CC1` [Example 85, 3-[1-(ethylsulfonyl)-4-piperidinyl]-5-(5-{[methyl(4-pyrimidinylmethyl)amino]methyl}-3-thienyl)-1H-indole-7-carboxamide trifluoroacetate]: the IC50 in assay [1] is at most 10 µM. In addition, the inhibition at 0.3 µM in assay [2] was 0 to 60%.

As for `CCS(=O)(=O)N1CCC(c2c[nH]c3c(C(N)=O)cc(-c4csc(CN(C)CCOC)c4)cc23)CC1` [Example 86, 3-[1-(ethylsulfonyl)-4-piperidinyl]-5-[5-({methyl[2-(methyloxy)ethyl]amino}methyl)-3-thienyl]-1H-indole-7-carboxamide trifluoroacetate], the IC50 in assay [1] was at most 10 µM; in assay [2], at most 1.5 µM.

In the case of `CCS(=O)(=O)N1CCC(c2c[nH]c3c(C(N)=O)cc(-c4csc(CN(C)C(C)C)c4)cc23)CC1` [Example 88, 3-[1-(ethylsulfonyl)-4-piperidinyl]-5-(5-{[methyl(1-methylethyl)amino]methyl}-3-thienyl)-1H-indole-7-carboxamide trifluoroacetate], the results for the IC50 in assay [1] and in assay [2] were at most 10 µM and at most 1.5 µM, respectively.

Take `CCCC1CCCN1Cc1cc(-c2cc(C(N)=O)c3[nH]cc(C4CCN(S(=O)(=O)CC)CC4)c3c2)cs1` (stereo not shown) [Example 89, 3-[1-(ethylsulfonyl)-4-piperidinyl]-5-{5-[(2-propyl-1-pyrrolidinyl)methyl]-3-thienyl}-1H-indole-7-carboxamide]: the IC50 is at most 10 µM in assay [1] and at most 1.5 µM in assay [2].

With `CCS(=O)(=O)N1CCC(c2c[nH]c3c(C(N)=O)cc(-c4csc(CN5CCCC5c5cccnc5)c4)cc23)CC1` (stereo not shown) [Example 90, 3-[1-(ethylsulfonyl)-4-piperidinyl]-5-(5-{[2-(3-pyridinyl)-1-pyrrolidinyl]methyl}-3-thienyl)-1H-indole-7-carboxamide], in assay [1], the IC50 is at most 10 µM. The inhibition at 0.3 µM in assay [2] fell in the range of 0 to 60%.

Consider `CCS(=O)(=O)N1CCC(c2c[nH]c3c(C(N)=O)cc(-c4csc(CN5CCCC5C(C)(C)C)c4)cc23)CC1` (stereo not shown) [Example 91, 5-(5-{[2-(1,1-dimethylethyl)-1-pyrrolidinyl]methyl}-3-thienyl)-3-[1-(ethylsulfonyl)-4-piperidinyl]-1H-indole-7-carboxamide trifluoroacetate], for which, in assay [1], the IC50 was at most 10 µM. Moreover, the inhibition at 0.3 µM in assay [2] lay within 0 to 60%.

Take `CCC1CCCN1Cc1cc(-c2cc(C(N)=O)c3[nH]cc(C4CCN(S(=O)(=O)CC)CC4)c3c2)cs1` (stereo not shown) [Example 92, 5-{5-[(2-ethyl-1-pyrrolidinyl)methyl]-3-thienyl}-3-[1-(ethylsulfonyl)-4-piperidinyl]-1H-indole-7-carboxamide]: the IC50 in assay [1] is at most 10 µM; in assay [2], at most 1.5 µM.

Regarding `CCS(=O)(=O)N1CCC(c2c[nH]c3c(C(N)=O)cc(-c4csc(CN5CCCC5C(C)C)c4)cc23)CC1` (stereo not shown) [Example 94, 3-[1-(ethylsulfonyl)-4-piperidinyl]-5-(5-{[2-(1-methylethyl)-1-pyrrolidinyl]methyl}-3-thienyl)-1H-indole-7-carboxamide], the IC50 in assay [1] is at most 10 µM. For the same molecule, the inhibition at 0.3 µM in assay [2] lay within 0 to 60%.

`CCS(=O)(=O)N1CCC(c2c[nH]c3c(C(N)=O)cc(-c4csc(CN5CCC[C@H]5COC)c4)cc23)CC1` [Example 95, 3-[1-(ethylsulfonyl)-4-piperidinyl]-5-[5-({(2S)-2-[(methyloxy)methyl]-1-pyrrolidinyl}methyl)-3-thienyl]-1H-indole-7-carboxamide]: the IC50 was at most 10 µM in assay [1] and at most 1.5 µM in assay [2].
